Experimental data: ChEMBL document CHEMBL1938230, “6-Position optimization of tricyclic 4-quinolone-based inhibitors of glycogen synthase kinase-3β: discovery of nitrile derivatives with picomolar potency” (Bioorg Med Chem Lett, 2012)

Assays:
[1] = molecular target: Dual specificity tyrosine-phosphorylation-regulated kinase 1B (Homo sapiens) (UniProt Q9Y463); experiment: Inhibition of human DYRK1B in HL-60 cells lysate assessed as reduction of labeling of acyl-phosphate ATP probe at 100 nM; type: cell-free
Chain of Dual specificity tyrosine-phosphorylation-regulated kinase 1B (Homo sapiens) (Q9Y463 whole entry, looked up): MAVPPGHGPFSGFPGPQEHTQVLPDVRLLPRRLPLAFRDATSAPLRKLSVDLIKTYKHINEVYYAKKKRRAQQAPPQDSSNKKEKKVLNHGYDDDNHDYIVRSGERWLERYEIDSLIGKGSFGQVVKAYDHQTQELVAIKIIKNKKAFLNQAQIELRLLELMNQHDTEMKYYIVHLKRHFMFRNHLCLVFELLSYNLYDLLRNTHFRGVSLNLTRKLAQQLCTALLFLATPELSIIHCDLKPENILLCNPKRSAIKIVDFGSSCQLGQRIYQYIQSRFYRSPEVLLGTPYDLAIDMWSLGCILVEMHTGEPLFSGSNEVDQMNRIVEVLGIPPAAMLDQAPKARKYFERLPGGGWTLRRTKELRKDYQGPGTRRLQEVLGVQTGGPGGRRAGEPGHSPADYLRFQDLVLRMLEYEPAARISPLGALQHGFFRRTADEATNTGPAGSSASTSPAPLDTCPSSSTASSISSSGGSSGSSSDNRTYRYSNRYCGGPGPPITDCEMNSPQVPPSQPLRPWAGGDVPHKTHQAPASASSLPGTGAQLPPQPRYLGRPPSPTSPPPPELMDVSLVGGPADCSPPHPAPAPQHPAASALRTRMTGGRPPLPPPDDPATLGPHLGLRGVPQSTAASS

[2] = molecular target: Serine/threonine-protein kinase PLK1 (Homo sapiens) (UniProt P53350); experiment: Inhibition of human PLK1 in HL-60 cells lysate assessed as reduction of labeling of acyl-phosphate ATP probe at 100 nM; type: cell-free
Chain of Serine/threonine-protein kinase PLK1 (Homo sapiens) (P53350 whole entry): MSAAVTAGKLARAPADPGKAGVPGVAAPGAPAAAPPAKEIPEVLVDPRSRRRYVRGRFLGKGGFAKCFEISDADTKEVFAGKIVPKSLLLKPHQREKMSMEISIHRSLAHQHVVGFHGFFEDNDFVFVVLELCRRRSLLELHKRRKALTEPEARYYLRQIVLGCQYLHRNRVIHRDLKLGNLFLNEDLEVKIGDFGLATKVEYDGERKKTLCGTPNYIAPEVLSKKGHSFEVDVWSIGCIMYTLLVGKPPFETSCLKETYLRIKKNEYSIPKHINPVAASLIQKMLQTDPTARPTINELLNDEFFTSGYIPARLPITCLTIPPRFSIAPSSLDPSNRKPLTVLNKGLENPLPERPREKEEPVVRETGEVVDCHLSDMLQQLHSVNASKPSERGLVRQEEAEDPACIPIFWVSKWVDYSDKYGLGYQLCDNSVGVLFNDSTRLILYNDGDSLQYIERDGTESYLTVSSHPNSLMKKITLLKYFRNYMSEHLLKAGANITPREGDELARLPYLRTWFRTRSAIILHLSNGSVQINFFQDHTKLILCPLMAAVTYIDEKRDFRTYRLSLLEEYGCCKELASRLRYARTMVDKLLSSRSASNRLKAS

[3] = molecular target: Serine/threonine-protein kinase 26 (Homo sapiens) (UniProt Q9P289); experiment: Inhibition of human MST4 in HL-60 cells lysate assessed as reduction of labeling of acyl-phosphate ATP probe at 100 nM; type: cell-free
Chain of Serine/threonine-protein kinase 26 (Homo sapiens) (Q9P289 2-416 limits assumed): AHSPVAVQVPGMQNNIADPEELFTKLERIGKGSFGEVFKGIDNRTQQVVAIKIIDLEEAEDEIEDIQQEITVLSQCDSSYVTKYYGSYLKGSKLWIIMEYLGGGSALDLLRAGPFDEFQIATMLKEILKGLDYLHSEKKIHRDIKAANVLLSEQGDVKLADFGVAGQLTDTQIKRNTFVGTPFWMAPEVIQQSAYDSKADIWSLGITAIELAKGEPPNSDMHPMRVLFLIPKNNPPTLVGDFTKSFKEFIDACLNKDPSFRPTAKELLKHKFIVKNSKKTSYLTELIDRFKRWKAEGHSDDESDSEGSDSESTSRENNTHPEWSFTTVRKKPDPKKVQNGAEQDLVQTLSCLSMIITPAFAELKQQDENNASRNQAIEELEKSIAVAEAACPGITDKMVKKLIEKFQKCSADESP

HL-60 = experiment: Inhibition of human FYN/SRC/YES in HL-60 cells lysate assessed as reduction of labeling of acyl-phosphate ATP probe at 100 nM
[4] = molecular target: RAF proto-oncogene serine/threonine-protein kinase (Homo sapiens) (UniProt P04049); experiment: Inhibition of human RAF1 in HL-60 cells lysate assessed as reduction of labeling of acyl-phosphate ATP probe at 100 nM; type: cell-free
Chain of RAF proto-oncogene serine/threonine-protein kinase (Homo sapiens) (P04049 whole entry): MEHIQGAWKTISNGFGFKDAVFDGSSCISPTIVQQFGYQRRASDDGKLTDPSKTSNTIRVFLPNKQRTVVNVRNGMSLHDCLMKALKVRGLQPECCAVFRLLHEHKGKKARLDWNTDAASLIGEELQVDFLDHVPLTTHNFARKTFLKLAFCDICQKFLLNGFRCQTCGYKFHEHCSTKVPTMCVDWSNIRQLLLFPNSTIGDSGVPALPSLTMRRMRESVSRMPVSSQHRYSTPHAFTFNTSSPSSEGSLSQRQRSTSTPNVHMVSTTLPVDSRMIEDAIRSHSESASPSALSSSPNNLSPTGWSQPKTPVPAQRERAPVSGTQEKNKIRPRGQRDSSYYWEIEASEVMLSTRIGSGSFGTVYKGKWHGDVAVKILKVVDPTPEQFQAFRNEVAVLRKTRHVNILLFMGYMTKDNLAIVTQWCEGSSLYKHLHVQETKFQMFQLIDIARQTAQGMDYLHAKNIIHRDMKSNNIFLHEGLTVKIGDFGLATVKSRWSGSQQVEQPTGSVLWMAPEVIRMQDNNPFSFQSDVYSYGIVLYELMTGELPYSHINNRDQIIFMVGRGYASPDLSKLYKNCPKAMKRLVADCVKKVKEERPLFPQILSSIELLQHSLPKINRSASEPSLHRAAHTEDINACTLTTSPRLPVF

[5] = molecular target: T1, Serine/threonine-protein kinase Nek1 (Homo sapiens) (UniProt Q96PY6); experiment: Inhibition of human NEK1 in HL-60 cells lysate assessed as reduction of labeling of acyl-phosphate ATP probe at 100 nM; type: cell-free
T1 sequence (whole entry): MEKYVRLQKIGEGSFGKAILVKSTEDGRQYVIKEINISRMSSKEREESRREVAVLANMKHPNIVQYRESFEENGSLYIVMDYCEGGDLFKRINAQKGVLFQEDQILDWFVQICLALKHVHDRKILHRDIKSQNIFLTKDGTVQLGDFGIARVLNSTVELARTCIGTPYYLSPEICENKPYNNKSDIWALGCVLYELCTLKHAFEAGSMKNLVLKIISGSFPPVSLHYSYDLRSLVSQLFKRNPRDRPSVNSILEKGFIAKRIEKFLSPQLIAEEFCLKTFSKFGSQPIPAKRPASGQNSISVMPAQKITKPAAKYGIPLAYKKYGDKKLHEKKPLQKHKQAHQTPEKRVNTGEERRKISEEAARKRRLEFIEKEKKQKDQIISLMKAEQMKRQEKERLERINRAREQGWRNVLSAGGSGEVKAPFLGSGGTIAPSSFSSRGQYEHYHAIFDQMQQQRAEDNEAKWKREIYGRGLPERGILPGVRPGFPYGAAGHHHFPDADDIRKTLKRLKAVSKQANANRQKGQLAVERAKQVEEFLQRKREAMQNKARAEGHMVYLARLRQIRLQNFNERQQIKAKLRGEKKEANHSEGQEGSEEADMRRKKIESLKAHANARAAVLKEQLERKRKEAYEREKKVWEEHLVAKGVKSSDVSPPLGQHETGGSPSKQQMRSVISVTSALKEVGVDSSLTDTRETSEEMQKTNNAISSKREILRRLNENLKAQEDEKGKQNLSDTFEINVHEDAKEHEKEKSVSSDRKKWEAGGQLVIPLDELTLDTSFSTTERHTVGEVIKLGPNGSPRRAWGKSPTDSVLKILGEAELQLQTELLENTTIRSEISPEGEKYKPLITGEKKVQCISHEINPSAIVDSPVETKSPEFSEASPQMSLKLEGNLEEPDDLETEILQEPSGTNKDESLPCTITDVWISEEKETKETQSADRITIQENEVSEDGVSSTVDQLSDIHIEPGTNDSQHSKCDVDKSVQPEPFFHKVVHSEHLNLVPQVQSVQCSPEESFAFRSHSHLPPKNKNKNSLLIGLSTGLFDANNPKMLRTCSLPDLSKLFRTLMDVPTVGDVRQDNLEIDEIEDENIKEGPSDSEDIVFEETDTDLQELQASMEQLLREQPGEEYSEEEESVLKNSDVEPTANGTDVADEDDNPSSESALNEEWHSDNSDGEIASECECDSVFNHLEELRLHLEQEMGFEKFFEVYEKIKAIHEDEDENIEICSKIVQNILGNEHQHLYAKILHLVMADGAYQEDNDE

[6] = molecular target: Protein-tyrosine kinase 2-beta (Homo sapiens) (UniProt Q14289); experiment: Inhibition of human PYK2 in HL-60 cells lysate assessed as reduction of labeling of acyl-phosphate ATP probe at 100 nM; type: cell-free
Chain of Protein-tyrosine kinase 2-beta (Homo sapiens) (Q14289 whole entry, looked up): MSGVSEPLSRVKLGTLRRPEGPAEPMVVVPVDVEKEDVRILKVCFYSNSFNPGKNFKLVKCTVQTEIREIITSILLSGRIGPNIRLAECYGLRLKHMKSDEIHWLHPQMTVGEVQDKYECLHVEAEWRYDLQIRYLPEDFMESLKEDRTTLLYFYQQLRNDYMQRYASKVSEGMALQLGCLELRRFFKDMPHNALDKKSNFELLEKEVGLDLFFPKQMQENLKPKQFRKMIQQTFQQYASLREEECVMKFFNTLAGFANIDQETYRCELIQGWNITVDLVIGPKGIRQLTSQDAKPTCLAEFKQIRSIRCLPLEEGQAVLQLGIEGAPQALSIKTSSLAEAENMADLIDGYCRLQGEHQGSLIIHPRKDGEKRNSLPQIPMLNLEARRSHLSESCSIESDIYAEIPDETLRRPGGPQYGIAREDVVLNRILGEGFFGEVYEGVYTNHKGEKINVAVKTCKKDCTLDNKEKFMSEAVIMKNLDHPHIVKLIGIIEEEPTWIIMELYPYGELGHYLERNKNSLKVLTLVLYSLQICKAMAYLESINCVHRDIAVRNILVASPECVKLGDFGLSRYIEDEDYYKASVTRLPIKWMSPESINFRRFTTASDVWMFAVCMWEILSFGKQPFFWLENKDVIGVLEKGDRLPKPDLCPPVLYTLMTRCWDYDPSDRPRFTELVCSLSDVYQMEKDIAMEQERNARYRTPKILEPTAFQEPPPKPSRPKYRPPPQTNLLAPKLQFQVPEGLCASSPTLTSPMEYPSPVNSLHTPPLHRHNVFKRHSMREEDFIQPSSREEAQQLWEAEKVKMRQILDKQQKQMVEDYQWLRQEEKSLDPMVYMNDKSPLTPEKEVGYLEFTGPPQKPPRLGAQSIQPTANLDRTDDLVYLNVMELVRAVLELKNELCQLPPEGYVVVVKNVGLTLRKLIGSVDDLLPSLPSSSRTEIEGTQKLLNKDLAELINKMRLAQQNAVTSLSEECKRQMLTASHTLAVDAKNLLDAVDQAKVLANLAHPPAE

[7] = molecular target: T2, Aurora kinase A (Homo sapiens) (UniProt O14965); experiment: Inhibition of human AurA in HL-60 cells lysate assessed as reduction of labeling of acyl-phosphate ATP probe at 100 nM; type: cell-free
T2 sequence (whole entry): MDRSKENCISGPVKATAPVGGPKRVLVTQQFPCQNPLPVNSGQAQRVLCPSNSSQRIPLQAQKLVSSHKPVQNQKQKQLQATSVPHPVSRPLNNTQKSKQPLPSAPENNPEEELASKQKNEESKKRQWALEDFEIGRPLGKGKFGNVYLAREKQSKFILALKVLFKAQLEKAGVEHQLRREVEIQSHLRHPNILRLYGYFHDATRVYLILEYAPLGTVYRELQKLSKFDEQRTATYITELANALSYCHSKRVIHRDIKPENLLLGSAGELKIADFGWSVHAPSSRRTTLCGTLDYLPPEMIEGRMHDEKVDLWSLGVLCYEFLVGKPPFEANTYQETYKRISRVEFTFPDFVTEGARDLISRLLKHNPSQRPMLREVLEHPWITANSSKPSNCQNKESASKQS

[8] = molecular target: T3, Phosphatidylinositol 5-phosphate 4-kinase type-2 alpha (Homo sapiens) (UniProt P48426); experiment: Inhibition of human PIP4K2A in HL-60 cells lysate assessed as reduction of labeling of acyl-phosphate ATP probe at 100 nM; type: cell-free
T3 sequence (whole entry): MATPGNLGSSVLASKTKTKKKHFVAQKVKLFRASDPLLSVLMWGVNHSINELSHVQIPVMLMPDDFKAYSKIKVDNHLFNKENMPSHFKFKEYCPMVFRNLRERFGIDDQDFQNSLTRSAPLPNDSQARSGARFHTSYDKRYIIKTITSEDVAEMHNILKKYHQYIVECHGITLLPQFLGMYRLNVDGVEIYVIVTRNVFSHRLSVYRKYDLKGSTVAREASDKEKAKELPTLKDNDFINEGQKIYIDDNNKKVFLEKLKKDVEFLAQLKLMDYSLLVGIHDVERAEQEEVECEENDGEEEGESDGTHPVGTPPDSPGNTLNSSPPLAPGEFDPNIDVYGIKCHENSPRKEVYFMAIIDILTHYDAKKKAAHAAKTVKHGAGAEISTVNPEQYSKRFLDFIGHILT

C[C@H]1COc2c(NCCCc3ccccn3)c(F)c(N)c3c(=O)c(C#N)cn1c23
< 35%: inhibition [1] | inhibition [2] | inhibition [3] | inhibition at 0.1 µM (HL-60) | inhibition [4] | inhibition [5] | inhibition [6] | inhibition [7] | inhibition [8]

C[C@H]1COc2c(NCCCc3ccccn3)c(F)c(N)c3c(=O)c(C(=O)O)cn1c23
< 35%: inhibition [1] | inhibition [2] | inhibition [3] | inhibition at 0.1 µM (HL-60) | inhibition [4] | inhibition [5] | inhibition [6] | inhibition [7] | inhibition [8]

C[C@H]1COc2c(NCCCn3cccn3)c(F)c(N)c3c(=O)c(C(=O)O)cn1c23
< 35%: inhibition [1] | inhibition [2] | inhibition [3] | inhibition at 0.1 µM (HL-60) | inhibition [4] | inhibition [5] | inhibition [6] | inhibition [7] | inhibition [8]

C[C@H]1COc2c(NCCCn3cccn3)c(F)c(N)c3c(=O)c(C#N)cn1c23
< 35%: inhibition [1] | inhibition [2] | inhibition [3] | inhibition at 0.1 µM (HL-60) | inhibition [4] | inhibition [5] | inhibition [6] | inhibition [7] | inhibition [8]
